Experimental data taken from PMC5812233, “A novel CAV derived cell-penetrating peptide efficiently delivers exogenous molecules through caveolae-mediated endocytosis” (Veterinary Research, 2018).
Entries after “also recorded” stand apart in the source; their conditions may differ. No end group written: not given here. *: point of attachment. FITC = O=C1OC2(c3ccc(O)cc3Oc3cc(O)ccc32)c2ccc(NC(=S)*)cc21

Experiments:
[1] = test system: furin; conditions: motif (RKKR and RQRR) in the TAT sequence; cited from earlier work
Description: Generally, CPPs are composed of 5–30 amino acids (aa) with enriched lysine or arginine residues, and divided into three classes including amphipathic CPP, cationic CPP and hydrophobic CPP [2, 3]. […] As the pioneer of CPPs, HIV-TAT with 86 amino acids plays vital roles in the replication of HIV. It wa ...

[2] = test system: HCT116 cells; experiment: Flow cytometry of cellular uptake of FITC-labeled peptides; format: cell-based; conditions: for mean percent of relative internalization: 10 000 events, three experiments in triplicate (Figure 3D)
Protocol: The comparison of cell-penetrating efficiency of peptides in HCT116 cells was tested by incubating the cells with CVP1 or TAT peptides. […] The cells were washed twice by centrifugation and finally resuspended in 400 µL PBS for assaying of cellular fluorescent intensity by flow cytometry (BD FACSAria SORP, Becton–Dickinson, USA). A total of 10 000 events were recorded. Data was obtained and analyzed using Flowjo software.

[3] = test system: HCT116 cells; experiment: β-galactosidase delivery, X-gal staining; format: cell-based; conditions: 20 µM peptide non-covalently complexed with 1 µg β-galactosidase, 1 h + 90 min at 37 °C, phase-contrast microscopy
Protocol: Protein delivery ability of CVP1 was assessed using β-galactosidase enzyme as previously described. In brief, CVP1 and Mut-CVP1 at a concentration of 20 µM were non-covalently complexed with β-galactosidase (1 µL, 1 µg/µL) enzyme respectively. The mixtures were incubated for 30 min at room temperature (RT) for complex formation. The peptide-enzyme complex was added to the HCT116 cells with Opti-MEM media (100 µL) and the cells were incubated for 1 h at 37 °C. After incubation, complete media (150 µL) was added to the cells, and further incubated for 90 min at 37 °C. The cells were washed thoroughly with PBS to remove extracellular peptide-enzyme complex and fixed in PBS containing 1% formaldehyde and 0.2% glutaraldehyde for 15 min at RT. The cells were washed subsequently three times with PBS and stained with X-gal staining buffer (40 mM potassium ferricyanide, 40 mM potassium ferrocyanide, 20 mM magnesium chloride, 2 mg/mL of X-gal in PBS) for 90 min at 37 °C. Finally, the cells were analyzed under a phase-contrast microscope (Olympus) at 200× magnification and imaged.

[4] = test system: HCT116 cells; conditions: 5 µM FITC-labeled peptide, 30 min, 37 °C, serum-free medium, confocal microscopy
Protocol: (§1) 293T cells, HCT-116 cells, 3T3 cells, MDCK cells and MSB1 cells were maintained in our laboratory and were grown in Dulbecco’s modified Eagle’s medium supplemented with 10% heated-inactivated fetal bovine serum (FBS) and 1% penicillin–streptomycin solution at 37 °C and 5% CO2.
(§2) Firstly, 2.0 × 10^5 of 293T cells, HCT-116 cells, 3T3 cells or MDCK cells were seeded onto glass cover slides in 24-well plates and cultured for 12 h. The cells were then washed with phosphate buffered saline (PBS) and incubated with 5 µM of FITC-labeled CVP1, TAT and Mut-CVP1 peptides in 500 µL serum-free medium for 30 min. The concentration-dependent intake of CVP1 peptide in HCT-116 cells was then evaluated. In brief, after incubation of cells with FITC-CVP1 peptide for 30 min, cells were washed for three times and stained with Hoechst 33342 (5 µg/mL) for 10 min. Finally, cells were washed three times with PBS and imaged using confocal laser scanning microscope (Leica, TCS SP8 STED and Germany) at 60× magnification.

[5] = test system: HCT116 cells; experiment: Plasmid (pCDNA3.1-RFP) transfection, fluorescence microscopy and flow cytometry; format: cell-based; conditions: 40 µM peptide, 1 µg plasmid DNA; for RFP fluorescence of cells treated with peptide-pCDNA3.1-RFP complex: 48 h post-transfection, fluorescence microscope
Protocol: (§3) The linking of DNA with CVP1 was made by the charge interaction. To confirm the formation of the peptide and plasmid complexes, the CVP1 peptide (5 μM) and plasmid DNA (200 ng) were diluted in 10 µL Opti-MEM and co-incubated at 37 °C for 45 min, and then agarose gel retardation assay was performed as described previously. The transfection experiment was conducted to test the transfection efficiency of CVP1-DNA on HCT116 cells as described previously. Briefly, 1 μg of plasmid DNA and 40 µM of CVP1 peptide or TAT peptide were diluted in 50 µL Opti-MEM, respectively and incubated at RT for 30 min. The lipofectamine 2000 (Invitrogen, USA) was used as a positive control, following the manual provided by the manufacture. […] Meanwhile, the fluorescence intensity was measured by Flow cytometry as described previously.

[6] = test system: HD11 cells; experiment: Poly (I:C) delivery, IFN-β mRNA by real-time PCR; format: cell-based; conditions: 10 µM peptide, 5 µg poly (I:C), 6 h
Protocol: To analyze the ability of CVP1 to delivery poly(I;C), the CVP1 (10 µM) was first mixed with the poly (I:C) (5 µg) for 45 min at 37 °C for generating the complex. And then, the HD11 cells were incubated with peptide-poly (I:C) complexes, peptide (10 µM) only or poly (I:C) (5 µg) with transfecting reagent. After 6 h of incubation, the cells were collected and total RNA extracted using total RNA purification kit (Axygen, USA). 1 µg of RNA was reverse transcribed into cDNA with a reverse transcription reagent kit (Takara, Japan). The relative mRNA level of IFN-β was detected by Real-time PCR.

[7] = test system: pCDNA3.1-RFP plasmid; experiment: Agarose gel retardation (gel-shift) assay of peptide-plasmid complex; format: binding; conditions: 5 µM peptide, 200 ng plasmid DNA, 37 °C 45 min, ethidium bromide
Protocol: as §3

[8] = test system: HCT116 cells; conditions: up to 40 µM (5, 10, 20, 40 µM), 12, 24 and 48 h (Figure 3C)
Protocol: Effect of CVP1 on the viability of cells was evaluated by MTT assay as described previously.

[9] = test system: HCT116 cells; experiment: Cell internalization pathway: endocytosis inhibitors and temperature, flow cytometry; format: cell-based
Protocol: The mechanism of uptake of CVP1 in HCT116 cells was investigated by means of physical and chemical inhibition of endocytosis. Incubation of peptide and cells at 37 or 4 °C were treated to measure the influence of temperature on peptide internalization (used as a physical means of inhibition of endocytosis). HCT116 cells cultured in 12-well plates were pretreated for 30 min with inhibitors: 30 µM chlorpromazine (a clathrin-mediated endocytosis inhibitor, which prevents the assembly of clathrin-coated pits at the inner surface of the cell membrane), 5 mM methylated-β-cyclodextrin (a caveolae-mediated endocytosis inhibitor, a cholesterol depletion agent), 10 µM 5-(N-ethyl-N-isopropyl) amilorid (a macropinocytosis inhibitor, which selectively blocks the Na^+/H^+ antiporter) and 50 µM LY294002 (a macropinocytosis inhibitor, a strong phosphatidylinositol-3 kinase inhibitor) as previously described. The cells were further incubated with the peptide for 50 min and then analyzed by flow cytometry. To investigate the effect of incubation time, the HCT116 cells were incubated with CVP1 at 37 °C for different time periods.

[10] = test system: 293T cells; conditions: 5 µM FITC-labeled peptide, 30 min, 37 °C, serum-free medium, confocal microscopy
Protocol: as §1, §2

[11] = test system: MDCK cells; conditions: 5 µM FITC-labeled peptide, 30 min, 37 °C, serum-free medium, confocal microscopy
Protocol: as §1, §2

[12] = test system: 3T3 cells; conditions: 5 µM FITC-labeled peptide, 30 min, 37 °C, serum-free medium, confocal microscopy
Protocol: as §1, §2

[13] = test system: poly (I:C); experiment: Gel retardation electrophoresis of peptide-poly (I:C) complex; format: binding; conditions: 10 µM peptide, 5 µg poly (I:C), 45 min 37 °C
[14] = HCT116 cells, 0.1 µM FITC-labeled peptide, flow cytometry after trypsin 5 min to remove non-internalized peptide
[15] = HCT116 cells, 1 µM FITC-labeled peptide, flow cytometry after trypsin 5 min
[16] = HCT116 cells, 2 µM FITC-labeled peptide, flow cytometry after trypsin 5 min
[17] = HCT116 cells, 5 µM FITC-labeled peptide, flow cytometry after trypsin 5 min
[18] = HCT116 cells, 10 µM FITC-labeled peptide, flow cytometry after trypsin 5 min

FITC-YGRKKRRQRRR [TAT, reference compound]
stability toward furin [1]: cleaved by furin
mean percent of relative internalization [2, 14]: 0.1%
mean percent of relative internalization [2, 15]: 0.4%
mean percent of relative internalization [2, 16]: 1.7%
mean percent of relative internalization [2, 17]: 25%
mean percent of relative internalization [2, 18]: 61%

{FITC}-MAAGAGAPAGAFYAFGAGA [Mut-CVP1]
X-gal staining of cells treated with peptide-β-galactosidase complex [3]: very weak blue background
cell-penetrating activity (overall) ([2]; HCT116 cells, FITC-labeled peptide, confocal imaging and flow cytometry): did not show any cell-penetrating activity
specific green fluorescence dots in cells (internalization) [4]: not
RFP fluorescence of cells treated with peptide-pCDNA3.1-RFP complex [5]: no fluorescence

{FITC}-MARRARRPRGRFYAFRRGR [CVP1, N terminus (aa 1–19) of VP1 from chicken anemia virus, FITC-labeled cell-penetrating peptide]
capacity of delivering poly (I:C), comparison with other carriers ([6]; IFN-β mRNA by real-time PCR, comparators TAT, transfection reagent): higher than the TAT; also recorded: not as equal as commercial transfection reagents
IFN-β mRNA expression of cells treated with peptide/poly (I:C) complexes versus naked peptide or poly (I:C) only ([6]; real-time PCR): significantly increased
X-gal staining of cells treated with peptide-β-galactosidase complex [3]: strong blue color
mean percent of relative internalization [2, 14]: 0.1%
mean percent of relative internalization [2, 15]: 2.1%
mean percent of relative internalization [2, 16]: 18.7%
mean percent of relative internalization [2, 17]: 86%
intensity of fluorescence in cells versus incubation time ([2]; HCT116 cells, 5 µM peptide, 5, 10, 15, 20, 25, 30 min, flow cytometry (Figure 3B)): increased as the incubation time was increased from 5 to 30 min
mean percent of relative internalization [2, 18]: 98%
cell-penetrating efficiency versus concentration ([2]; HCT116 cells, 1, 2, 5, 10, 20, 40 µM, 30 min, 37 °C, flow cytometry (Figure 3A)): dose-dependent
migration of plasmid conjugated with peptide (DNA binding capacity) [7]: much lower migration speed than naked plasmid
toxicity to cells (cell viability, MTT) [8]: non-toxic
effect of EIPA on cellular intake of the peptide ([9]; HCT116 cells pretreated 30 min with 10 µM 5-(N-ethyl-N-isopropyl) amiloride (macropinocytosis inhibitor), then peptide 50 min): unable to inhibit
effect of CPZ on cellular intake of the peptide ([9]; HCT116 cells pretreated 30 min with 30 µM chlorpromazine (clathrin-mediated endocytosis inhibitor), then peptide 50 min): unable to inhibit
effect of LY294002 on cellular intake of the peptide ([9]; HCT116 cells pretreated 30 min with 50 µM LY294002 (macropinocytosis inhibitor), then peptide 50 min): only slightly blocked
effect of MβCD on cellular intake of the peptide ([9]; HCT116 cells pretreated 30 min with 5 mM methylated-β-cyclodextrin (caveolae-mediated endocytosis inhibitor), then peptide 50 min): significantly reduced
cell-penetrating activity at 4 °C ([9]; HCT116 cells, 10 µM peptide, 4 °C compared with 37 °C): efficiently inhibited
specific green fluorescence dots in cells (internalization) [10]: clearly observed
specific green fluorescence dots in cells (internalization) [4]: clearly observed
specific green fluorescence dots in cells (internalization) [11]: clearly observed
specific green fluorescence dots in cells (internalization) [12]: clearly observed
efficacy of delivering plasmid, comparison with other carriers ([5]; 48 h, flow cytometry, comparators TAT peptide, lipofectamine 2000): significantly higher signal of fluorescence than the TAT/RFP sample; also recorded: not as equal as commercial transfection reagents
RFP fluorescence of cells treated with peptide-pCDNA3.1-RFP complex [5]: strong fluorescence
complex formation with poly (I:C) [13]: could conjugate with the poly (I:C) to form a complex
